From PubChem BioAssay AID624437 (The Scripps Research Institute Molecular Screening Center, 2012)
Active and inactive are the calls of the source.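 The calls were made as follows: active = PP1 inhibition of at least 30% at 50 µM, though none qualified; inactive = the rest.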

Each molecule was assayed against Serine/threonine-protein phosphatase PP1-alpha catalytic subunit (Homo sapiens) (UniProt P62136) (assay: PP1alpha phosphatase inhibition, phosphohistone substrate, late-stage follow-up, selectivity assay for PP5 inhibitor project, biochemical, 33P-phosphohistone, radiolabel, single concentration, round 5 (AID 624437)). Settings: purified PP1alpha, 33P-phosphohistone dephosphorylation, scintillation; at 50 µM; active compounds read high.
Chain of Serine/threonine-protein phosphatase PP1-alpha catalytic subunit (Homo sapiens) (P62136 whole entry, looked up): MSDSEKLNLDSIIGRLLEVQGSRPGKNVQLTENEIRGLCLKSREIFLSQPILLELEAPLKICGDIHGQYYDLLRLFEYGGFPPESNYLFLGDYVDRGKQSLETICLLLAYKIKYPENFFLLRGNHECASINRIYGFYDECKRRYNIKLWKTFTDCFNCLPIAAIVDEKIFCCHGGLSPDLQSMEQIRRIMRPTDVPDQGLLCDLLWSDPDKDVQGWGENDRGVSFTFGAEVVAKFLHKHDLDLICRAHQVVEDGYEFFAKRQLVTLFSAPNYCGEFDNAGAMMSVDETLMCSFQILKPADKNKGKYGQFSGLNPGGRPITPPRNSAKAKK
For `O=C(O)c1n[nH]nc1-c1cccc(F)c1`, the inhibition was 10.3% (inactive). `COc1ccccc1-c1n[nH]nc1C(=O)O` was tested, and the inhibition was 23.3% (inactive). `O=C(O)c1n[nH]nc1-c1ccccc1F` was tested, and the inhibition was 20.5% (inactive). `COc1cccc(-c2n[nH]nc2C(=O)O)c1` was tested, and the inhibition was 11.1% (inactive). In the case of `O=C(O)c1n[nH]nc1-c1ccc(F)cc1`, the inhibition is reported as 10.4% (inactive). `COc1ccc(-c2n[nH]nc2C(=O)O)cc1` was tested, and the inhibition was 1.04% (inactive). In the case of `O=C(O)c1n[nH]nc1-c1ccccc1O`, the inhibition is reported as 10.9% (inactive).
